Experimental data: US10815444B2, “Use of specific derivatives of quaternized nitrogen compounds as additives in fuels and lubricants” (BASF SE, priority 2013, dated 2020)

Tests used:
[1] = Motor oil compatibility to standard DGMK 531 1-A (filtration time); conditions: for filtration time: 10 g additive + 10 g motor oil, 90° C. three days, 500 ml EN590 B7 diesel, 0.8 μm membrane filter, 200 mbar; for filterability / motor oil compatibility pass/fail: DGMK 531 1-A
Protocol: Determination to standard DGMK 531 1-A with EN590 B7 fuel from Aral, unadditized, and Wintershall Multi-Rekord Top 15W-40 motor oil.
10 g in each case of motor oil and 10 g of the additive to be tested are weighed into a 500 ml Erlenmeyer flask and homogenized. The flask containing the mixture is loosely sealed with a glass stopper and conditioned in a drying cabinet at a temperature of 90±3° C. for three days. After the conditioning, the sample is cooled in a fume hood at room temperature for one hour. The mixture is then made up with 500 ml of diesel fuel and mixed thoroughly. A membrane filter of diameter 50 mm and pore size 0.8 μm is inserted into the filtration apparatus. Mixture is filtered through the membrane filter with the aid of a reduced pressure of 200 mbar. The filtration time is measured.

[2] = Storage stability of formulations at −20° C.; format: physicochemical
Protocol: The following formulations were tested for storage stability at −20° C.: […]
a) 1:5 Dilution in Solvent Naphtha (5 Parts):
b) 1:5:1 Dilution in 2-Ethylhexyl Nitrate (5 Parts) and Solvent Naphtha (1 Part)

[3] = DW10 Na power-loss test (keep-clean); conditions: 8 h, 1 ppm Na + 20 ppm dodecenylsuccinic acid and 150 ppm additive
Protocol: To examine the efficacy of the inventive compounds against power loss caused by metals such as Na, K and others (and not by Zn as described above), an IDID engine test was used. During the run, the power is measured to CEC F-098-08.

[4] = DW10 Zn engine test (clean-up), engine power; conditions: 25 mg/kg active compound
Protocol: 2.2. DW10 Dirty-Up Clean-Up (DU-CU)
The DU-CU test is based on CEC test procedure F-098-08 Issue 5. The procedure is described in Issue 5 of the test procedure (CEC F-98-08). This is done using the same test setup and the PEUGEOT DW10 engine type.
The DU-CU test consists of two individual tests which are run in succession. The first test serves to form deposits (DU), the second to remove the deposits (CU). After the DU, the power loss is determined. After the end of the DU run, the engine is not operated for at least 8 hours and is cooled to ambient temperature. Thereafter, the CU fuel is used to start the CU without deinstalling and cleaning the injectors. The deposits and power loss ideally decline over the course of the CU test.
The initial power P0,cu [kW] is calculated from the measured torque at full load 4000/min directly after the test has started and the engine has run hot in the CU. The procedure is likewise described in Issue 5 of the test procedure.
The final power (Pend,cu) is determined in the 12th cycle in stage 12 (see table, FIG. 2). Here too, the operation point is full load 4000/min. Pend,cu [kW] is calculated from the torque measured.
The test was conducted with a Peugeot DW10 engine, which is used in CEC F-98-08 procedure, except that more severe conditions were used in the dirty-up part:
I. Dirty-up: the more severe conditions allow distinctly faster formation of injector deposits than under standard CEC F-98-08 conditions: The engine was operated at full load (4000 rpm) with EN590 B7 Aral, unadditized, containing 3 mg/kg Zn, for 4 h.

[5] = DW10 Na soap IDID test (clean-up), exhaust gas temperatures on cold start; conditions: CU, 70 mg/kg active compound
Protocol: 3. IDID Test—Determination of Additive Effect on Internal Injector Deposits
The formation of deposits within the injector was characterized by the deviations in the exhaust gas temperatures of the cylinders at the cylinder outlet on cold starting of the DW10 engine.
To promote the formation of deposits, 1 mg/l of sodium salt of an organic acid, 20 mg/l of dodecenylsuccinic acid and 10 mg/l of water were added to the fuel.
The test is conducted as a dirty-up clean-up test (DU-CU).
Thereafter, the CU fuel is used to start the CU without deinstalling and cleaning the injectors. After the CU run over 8 h, after a rest phase of at least eight hours, a cold start of the engine is conducted, followed by idling for 10 minutes. The evaluation is effected by the comparison of the temperature profiles for the individual cylinders after the cold start in the DU and CU runs.
The IDID test indicates the formation of internal deposits in the injector. The characteristic used in this test is the exhaust gas temperature of the individual cylinders. In an injector system without IDIDs, the exhaust gas temperatures of the cylinders increase homogeneously.
The temperature sensors are beyond the cylinder head outlet in the exhaust gas manifold. Significant deviation of the individual cylinder temperatures (e.g. >20° C.) indicates the presence of internal injector deposits (IDIDs).
The tests (DU and CU) are each conducted with run time 8 h. The one-hour test cycle from CEC F-098-08 (see FIG. 1) is run through 8 times in each case. In the event of deviations of the individual cylinder temperatures of greater than 45° C. from the mean for all 4 cylinders, the test is stopped early.
To examine the influence of the additives on the performance of direct injection diesel engines, as a further test method, the IDID engine test was conducted, in which the exhaust gas temperatures in the cylinders at the cylinder outlet were determined on cold starting of the DW10 engine. (cf. method description above)
A DW10 direct injection diesel engine with common rail system from the manufacturer Peugeot was used, which was employed in the CEC F-098-08 test method. The method that was used derived from CEC F-098-08, with the difference that, rather than 1 ppm of Zn for artificial inducement of formation of deposits, 1 ppm by weight of sodium naphthenate and 20 ppm by weight of dodecenylsuccinic acid were used in each case. The fuel used was a commercial B7 diesel fuel according to EN 590 from Aral. The test duration is shortened to 8 hours compared to method CEC F-098-08. After respective DU and CU phases, the engine is cooled and then started at idling speed.
II. CU (clean-up) After the DU phase, the engine is operated with additized fuel without cleaning the injectors beforehand.
Again, the exhaust gas temperatures of the 4 cylinders (“C1” to “C4”) were measured at each of the cylinder outlets after 0 minutes (“ϑ0”) and after 5 minutes (“ϑ5”). The results of the exhaust gas temperature measurements with average values (“Δ”) and the greatest differences from Δ in the downward (“−”) and upward (“+”) directions for the two test runs are summarized in the following overview: […]

[6] = XUD9 engine test (keep clean), flow restriction, CEC F-23-01; conditions: 0.1 mm needle stroke, Aral EN590 B7 fuel
Source text: 1. XUD9 Test—Determination of Flow Restriction
The procedure was according to the standard provisions of CEC F-23-01.
Test according to above procedure CEC F-23-01 in Peugeot XUD9 engine.

[7] = Protocol: The partition coefficient is determined by means of various methods according to the value.
[8] = 1:5:1 dilution in 2-ethylhexyl nitrate (5 parts) and Solvent Naphtha (1 part)
[9] = 1:5 dilution in Solvent Naphtha (5 parts)

Molecule: C12/14-NMe3-Methyl Oxalate [Comparative example 1, reference compound]
- filtration time [1]: > 300 s
- filterability [1]: very poor filterability
- motor oil compatibility pass/fail [1]: fail
- storage stability observation [2, 8]: solidification after 1 day
- storage stability observation [2, 9]: solidification after 44 days

Molecule: C12/14-NMe3-2-Propylheptyl Oxalate [Inventive example 1]
- filtration time [1]: 114 s
- filterability [1]: good filterability
- motor oil compatibility pass/fail [1]: pass
- Change in power in the test [3]: +0.2%
- Engine power after the test [3]: 96.6 kW
- Engine power before the test [3]: 96.4 kW
- storage stability observation [2, 8]: clear liquid after 14 days
- storage stability observation [2, 9]: clear liquid after 60 days
- Engine power on commencement of clean-up test ([4]; 1 ppm Zn in EN590 B7, after dirty-up): 90.2 kW
- Engine power after engine running for 3 h ([4]; 1 ppm Zn in EN590 B7, clean-up): 97.7 kW
- Engine power until the end of the clean-up test ([4]; 1 ppm Zn in EN590 B7, clean-up lasting 8 h): 97.7 kW
- average exhaust gas temperature (Δ) [5]: 77 °C
- evaluation of IDID clean-up [5]: the IDIDs formed were removed
- greatest difference from Δ in the downward direction [5]: −8 °C
- greatest difference from Δ in the upward direction [5]: +5 °C
- exhaust gas temperature cylinder C1 ([5]; after 0 minutes (ϑ0)): C1: 28 °C
- exhaust gas temperature cylinder C2 ([5]; after 0 minutes (ϑ0)): C2: 27 °C
- exhaust gas temperature cylinder C3 ([5]; after 0 minutes (ϑ0)): C3: 27 °C
- exhaust gas temperature cylinder C4 ([5]; after 0 minutes (ϑ0)): C4: 26 °C
- exhaust gas temperature cylinder C1 ([5]; after 5 minutes (ϑ5)): C1: 78 °C
- exhaust gas temperature cylinder C2 ([5]; after 5 minutes (ϑ5)): C2: 82 °C
- exhaust gas temperature cylinder C3 ([5]; after 5 minutes (ϑ5)): C3: 77 °C
- exhaust gas temperature cylinder C4 ([5]; after 5 minutes (ϑ5)): C4: 69 °C
- Flow restriction ([6]; dosage 24 mg/kg): 46.6%
- Flow restriction ([6]; dosage 36 mg/kg): 14.5%
- Flow restriction ([6]; dosage 48 mg/kg): 4.5%

Molecule: CCCCC(CC)CO (stereo not drawn) [2-ethylhexanol]
- partition coefficient log Pow [7]: 2.9

Molecule: CCCCCO [pentanol]
- partition coefficient log Pow [7]: 1.3
